The values that follow come from US20240158393A1, “PYRIDONE COMPOUNDS AND METHODS OF USE” (Exelixis, Inc., priority 2021, published 2024).

Usually IC50 stands for the concentration that gives 50% inhibition. Low readings indicate inhibition by little substance, high ones a need for much substance.

The target in the assay is T1, Human Mer (Homo sapiens, UniProt Q12866).
T1 construct: Human Mer (residues R557-E882 with H628Q and R794A, 0.7 nM); purchased Eurofins Pharma Discovery Services UK Limited (KinaseProfiler service)
T1 sequence (Q12866 557-882 limits assumed): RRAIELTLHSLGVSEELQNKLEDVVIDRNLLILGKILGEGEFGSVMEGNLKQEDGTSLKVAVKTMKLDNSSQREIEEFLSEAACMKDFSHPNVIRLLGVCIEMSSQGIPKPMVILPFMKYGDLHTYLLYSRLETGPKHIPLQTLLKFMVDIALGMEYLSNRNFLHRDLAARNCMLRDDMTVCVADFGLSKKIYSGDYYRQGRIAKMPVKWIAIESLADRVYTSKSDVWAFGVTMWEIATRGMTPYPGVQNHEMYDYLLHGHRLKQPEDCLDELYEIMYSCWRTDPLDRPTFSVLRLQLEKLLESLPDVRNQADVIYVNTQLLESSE
Kind of assay: Human Mer kinase assay (33P radiometric / HTRF KinEase). The settings on record: protocols of Examples C-1 and/or C-2. It is filed as biochemical. Summed up: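 Two formats yield IC50 values. HTRF KinEase used MER residues 528-999 with ATP at Km (40 μM), 1 μM biotin-peptide, 60 min RT, […], 10 concentrations. 33P filter assay used 0.7 nM Mer R557-E882 (H628Q/R794A), 10 μM ATP, 250 μM peptide, 40 min RT, top 1 μM.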
(In TR-FRET formats the signal depends on donor and acceptor labels being close together.)
Consider `COc1cc2nccc(Oc3ccc(NC(=O)c4cnc(C)c(C5=CCOCC5)c4O)cc3F)c2nc1OC` [Compound 1-3, 5-(3,6-Dihydro-2H-pyran-4-yl)-N-[4-[(6,7-dimethoxy-1,5-naphthyridin-4-yl)oxy]-3-fluorophenyl]-4-hydroxy-6-methylpyridine-3-carboxamide], for which the IC50 was at most 100 nM. For `COc1cc2nccc(Oc3ccc(NC(=O)c4cnc(C)c(C5=CCCCC5)c4O)cc3F)c2cc1OC` [Compound 23, 5-(Cyclohexen-1-yl)-N-[4-(6,7-dimethoxyquinolin-4-yl)oxy-3-fluorophenyl]-4-hydroxy-6-methylpyridine-3-carboxamide], the IC50 was at most 100 nM. In the case of `COc1cc2nccc(Oc3ccc(NC(=O)c4cn(C)c(C)c(C5=CCCC5)c4=O)cc3F)c2nc1OC` [Compound 1, 5-(Cyclopenten-1-yl)-N-[4-[(6,7-dimethoxy-1,5-naphthyridin-4-yl)oxy]-3-fluorophenyl]-1,6-dimethyl-4-oxopyridine-3-carboxamide] it was at most 100 nM; in that of `COc1cc2nccc(Oc3ccc(NC(=O)c4c(C)cc(C)n(C5CCCC5)c4=O)cc3F)c2nc1OC` [Compound 15, 1-Cyclopentyl-N-[4-[(6,7-dimethoxy-1,5-naphthyridin-4-yl)oxy]-3-fluorophenyl]-4,6-dimethyl-2-oxopyridine-3-carboxamide], at most 100 nM. `COc1cc2nccc(Oc3ccc(NC(=O)c4c(C)nc(C)c(C(N)=O)c4O)cc3F)c2nc1OC` [Compound 84, 3-N-[4-[(6,7-Dimethoxy-1,5-naphthyridin-4-yl)oxy]-3-fluorophenyl]-4-hydroxy-2,6-dimethylpyridine-3,5-dicarboxamide] displayed an IC50 above 300 nM. Compound `COCCOc1cc2nccc(Oc3ccc(NC(=O)c4cnc(C)c(C5=CCCC5)c4O)cc3F)c2nc1OC` [Compound 33, 5-(Cyclopenten-1-yl)-N-[3-fluoro-4-[[6-methoxy-7-(2-methoxyethoxy)-1,5-naphthyridin-4-yl]oxy]phenyl]-4-hydroxy-6-methylpyridine-3-carboxamide] had an IC50 of at most 100 nM. In the case of `COc1cc2nccc(Oc3ccc(NC(=O)c4cnc(C)c(C5=CCOCC5)c4O)cc3F)c2cc1OC` [Compound 19, 5-(3,6-Dihydro-2H-pyran-4-yl)-N-[4-(6,7-dimethoxyquinolin-4-yl)oxy-3-fluorophenyl]-4-hydroxy-6-methylpyridine-3-carboxamide] it was at most 100 nM.
